Reference: US20030143633A1, “Factors participating in degranulation of mast cells, dnas encoding the same, method of screening of these factors and the inhibitors” (priority 2000, published 2003)

What was measured:
[1] = tested on: interaction between mG#102 and mA#10283; test: Two-hybrid recombinant yeast #102 strain growth in histidine defective medium; type: cell-based, S. cerevisiae; settings: for specific suppression of #102 strain growth (in words): compared with VT strain; for Suppression (% control) of growth of yeast strain, #102 strain: turbidity 590 nm, 18-20 hr
Method: (§1) Two expression vectors respectively incorporating mG#102 in pAS2-1 vector and mA#10283 in pACT2 vector were introduced into S. cerevisiae CG1945 strain to give a recombinant yeast #102 strain (see Example 3). As a control, recombinant yeast VT strain into which plasmid for positive control (pVA3-1, pTD1-1) of MATCHMAKER Two-Hybrid System 2 had been introduced was prepared. The culture media of #102 strain and VT strain that reached confluent by shake culture overnight at 30° C. in an SD medium supplemented with histidine were diluted 200-fold with a fresh histidine defective SD medium (containing 1 mM 3-AT) and dispensed to a 96 well plate by 0.09 ml/well. A PBS solution containing a compound whose effect is desired to be examined was added to each well, PBS was added to the well of 100% control, and 1M 3-AT-containing PBS solution was added to the well of 0% control respectively in a volume of 0.01 ml/well and mixed by a plate shaker MicroMixer E-36 (manufactured by TAITEC). Then, after static culture at 30° C. for 18-20 hr, culture media were suspended in a plate shaker, and turbidity (absorbance at 590 nm) was measured with a 96 well plate spectrophotometer Multiskan BICHROMATIC (manufactured by Labsystems) The data of the turbidity measured were evaluated on conversion to % control based on the turbidity data of 100% control and 0% control. When a common effect appears between the #102 strain and the VT strain, it was considered a nonspecific effect on the two-hybrid system rather than an effect on the interaction between mG#102 and mA#10283.
(§2) Using the system shown in Example 7, 0.09 ml each of #102 strain yeast or VT strain yeast (control) was placed in each well of a 96 well plate, and a PBS solution containing a particular compound which is unknown as to its effect on the interaction between mG#102 and mA#10283 was added by 0.01 ml, which was followed by culture at 30° C. for 18-20 hr. Then, the culture medium was suspended in a plate shaker and the turbidity (absorbance at 590 nm) was measured with a 96 well plate absorbance meter. The turbidity of the well to which PBS solution without the compound was added was taken as 100% control and the turbidity of the well to which PBS solution containing 3-AT (final concentration 100 mM) instead of the compound was added was taken as 0% control, and the effect of the compound was evaluated by conversion to percentage.

VT strain [2] = test: Two-hybrid positive control recombinant yeast VT strain growth (nonspecific effect control); type: cell-based, S. cerevisiae; settings: turbidity 590 nm, 18-20 hr
Method: as §1, §2

[3] = tested on: mouse bone marrow-derived mast cells (BMMC); test: IgE/DNP-HSA antigen-induced degranulation of BMMC (hexosaminidase release); type: cell-based; settings: for Suppression (% control) of degranulation of mast cell: fluorescence of control group without compound = 100%
Method: BMMC prepared by the method shown in Example 1 was suspended in 10% FBS-containing RPMI at a concentration of 3×10^6/ml. To this BMMC was added a mouse monoclonal anti-DNP IgE antibody (manufactured by YAMASA) at 3 μg/ml, and the mixture was stood at room temperature for 30 min. Then, BMMC treated with an IgE antibody was washed with buffer A (133 mM NaCl, 5 mM KCl, 0.9 mM NaH2PO4, 8 mM glucose, 1 mg/ml BSA, 0.01 mM CaCl2, 20 mM HEPES, pH 7.4) and suspended in buffer A containing 1 mM CaCl2 at a concentration of 3×10^6/ml. This BMMC suspension (0.1 ml/well) was added in a 96 well multiplate and a solution of the compound to be examined (0.05 ml/well) and a DNP-HSA (manufactured by Sigma) solution (40 ng/ml, 0.05 ml/well) as an antigen were added. After standing at room temperature for 30 min, the mixture was centrifuged at 1000 rpm for 5 min and the supernatant was recovered for the 96 well multiplate by 0.05 ml/well. To this supernatant was added a 4-methylumbelliferyl-2-acetamide-2-deoxy-β-D-glucopyranoside (manufactured by Funakoshi Co., Ltd., substrate of hexosaminidase) solution (1 mM; in 0.2 M citrate buffer (pH 4.5)) at 0.05 ml/well. After standing at 37° C. for 90 min, 1M Tris solution (0.15 ml) was added to stop the reaction, and the amount of fluorescence in each well was measured by fluoroscan (manufactured by Labo Systems). The suppressive effect of the compound on the degranulation of BMMC was calculated based on the amount of fluorescence in the control group free of addition of the compound as 100%. As a control compound, tranilast was used.

VT strain [4] = test: Two-hybrid positive control recombinant yeast VT strain growth (nonspecific effect control); type: cell-based, S. cerevisiae
[5] = tested on: interaction between mG#102 and mA#10283; test: Two-hybrid recombinant yeast #102 strain growth in histidine defective medium; type: cell-based, S. cerevisiae; settings: histidine defective SD medium
BMMC = BMMC digitonin degranulation system (histamine release); type: cell-based, mouse; settings: protein added to digitonin-permeabilised BMMC, CaCl2 stimulation, histamine RIA
Method: The recombinant protein was added to a BMMC digitonin degranulation system to examine the effect. BMMC was washed twice with a buffer having the following composition to give a suspension at 2×10^6 cells/ml and dispensed to a 96-well U-bottom plate by 0.05 ml/well. Then, mG#101 or mG#102 recombinant protein (0.05 ml/well) was added. Furthermore, 4.5 μM digitonin was added by 0.05 ml/well and the plate was stood at room temperature for 5 min. Thereafter 4 mM CaCl2 was added by 0.05 ml/well and the plate was stood at room temperature for 10 min. After standing, the concentration of histamine liberated in the supernatant was determined by a histamine RIA kit (Eiken Chemical Co., Ltd.). buffer composition:
The recombinant protein was added to the digitonin degranulation system (see Example 5) and the effect was examined.

[6] = compound concentration 10 μg/ml
[7] = compound concentration 30 μg/ml
[8] = compound concentration 0.3 μg/ml

Molecule | specific suppression of #102 strain growth (in words) [1] | Suppression (% control) of growth of yeast strain, #102 strain ([1]; compound concentration 1 μg/ml) [% control] | Suppression (% control) of growth of yeast strain, #102 strain ([1]; compound concentration 3 μg/ml) [% control] | Suppression (% control) of growth of yeast strain, #102 strain [1, 6] [% control] | Suppression (% control) of growth of yeast strain, VT strain (VT strain [2]; compound concentration 1 μg/ml) [% control] | Suppression (% control) of growth of yeast strain, VT strain (VT strain [2]; compound concentration 3 μg/ml) [% control] | Suppression (% control) of growth of yeast strain, VT strain (VT strain [2]; [6]) [% control] | Suppression (% control) of degranulation of mast cell ([3]; concentration 1 μg/ml) [% control] | Suppression (% control) of degranulation of mast cell ([3]; concentration 3 μg/ml) [% control] | Suppression (% control) of degranulation of mast cell ([3]; concentration 10 μg/ml) [% control] | Suppression (% control) of degranulation of mast cell ([3]; concentration 30 μg/ml) [% control] | Suppression (% control) of degranulation of mast cell ([3]; concentration 100 μg/ml) [% control] | effect of recombinant protein on degranulation (in words) (BMMC) | other results
O=C(N/N=C/c1ccc([N+](=O)[O-])o1)c1ccccc1Br [Formula [IV], 5-nitro-2-furaldehyde-2-brombenzoylhydrazne] | specifically suppressed #1022 strain in a dose-dependent manner | 99 | 99 | 36 | 102 | 102 | 98 |  |  |  |  |  |  | Suppression (% control) of growth of yeast strain, #102 strain [1, 7]: −2 % control; Suppression (% control) of growth of yeast strain, VT strain (VT strain [2]; [7]): 63 % control
CC(C)=NNc1nc(-c2ccc(-c3ccccc3)cc2)cs1 [Formula [III], acetone-4-(4-phenyl)phenyl-1,3-thiazol-2-yl-hydrazone] | specifically suppressed #1022 strain in a dose-dependent manner | 57 | 4 | 1 | 85 | 77 | 63 | 102 | 87 | 39 | 20 | 6 |  | Suppression (% control) of growth of yeast strain, #102 strain [1, 8]: 99 % control; Suppression (% control) of growth of yeast strain, VT strain (VT strain [2]; [8]): 99 % control; suppression of degranulation of mast cells (in words) [3]: suppressed degranulation of mast cells in a dose-dependent manner
COc1ccc(/C=C/C(=O)Nc2ccccc2C(=O)O)cc1OC [tranilast, reference compound] |  |  |  |  |  |  |  | 96 | 90 | 78 | 52 | 22 |  | 
Nc1nc[nH]n1 [Formula 3-AT, 3-amino-1,2,4-triazole] |  |  |  |  |  |  |  |  |  |  |  |  |  | growth of recombinant yeast strain with 100 mM 3-AT (in words) (VT strain [4]; 100 mM 3-AT): neither recombinant yeast strain could grow; concentration of 3-AT wherein the recombinant yeast strain grows in a reporter gene (histidine synthase)-dependent manner (VT strain [4]; histidine defective SD medium): 1 to 10 mM; concentration of 3-AT wherein the recombinant yeast strain grows in a reporter gene (histidine synthase)-dependent manner [5]: 1 to 10 mM; growth of recombinant yeast strain with 100 mM 3-AT (in words) ([1]; #102 strain, 100 mM 3-AT): neither recombinant yeast strain could grow
mG#101: recombinant mouse first Rab protein, SEQ ID NO: 1 (protein, Mus musculus or Homo sapiens; (45) Ala or Val.) MLLGDSGVGKTCFLIQFKDGAFLSGTFIATVGIDFRNKVVTVDGXRVKLQIWDTAGQERFRSVTHAYYRDAQALLLLYDITNKSSFDNIRAWLTEIHEYAQRDVVIMLLGNKADXSSERVIRSEDGETLAREYGVPFXETSAKTGMNVELAFLAIAKELKYRAGXQXDEPSFQIRDYVESQKKRSSCCSFV |  |  |  |  |  |  |  |  |  |  |  |  | inhibited degranulation in a concentration dependent manner | 
mG#102: recombinant mouse second Rab protein, SEQ ID NO: 4 (protein, Mus musculus or Homo sapiens; (113) Thr or Ser.) MQTPHKEHLYKLLVIGDLGVGKTSIIKRYVHQNFSSHYRATIGVDFALKVLHWDPETVVRLQLWDIAGQERFGNMTRVYYREAMGAFIVFDVTRPATFEAVAKWKNDLDSKLXLPNGKPVSVVLLANKCDQGKDVLMNNGLKMDQFCKEHGFVGWFETSAKENINIDEASRCLVKHILANECDLXESIEPDXVKPHLTSXKVXSCSGCAKS |  |  |  |  |  |  |  |  |  |  |  |  | inhibited degranulation in a concentration dependent manner | 
